From US20240398828A1, “HETERO-ATOM CONTAINING COMPOUNDS AND USES THEREOF” (Kumquat Biosciences Inc., priority 2021, published 2024)

Legend:
[1] = molecular target: T1, PTPN1 (i.e., PTP1B) (Homo sapiens, UniProt P18031); assay: Phosphatase activity assay (DiFMUP substrate), PTP1B; assay type: biochemical; settings: compounds binned ≤1 uM or >1 uM
T1 sequence (P18031 1-435): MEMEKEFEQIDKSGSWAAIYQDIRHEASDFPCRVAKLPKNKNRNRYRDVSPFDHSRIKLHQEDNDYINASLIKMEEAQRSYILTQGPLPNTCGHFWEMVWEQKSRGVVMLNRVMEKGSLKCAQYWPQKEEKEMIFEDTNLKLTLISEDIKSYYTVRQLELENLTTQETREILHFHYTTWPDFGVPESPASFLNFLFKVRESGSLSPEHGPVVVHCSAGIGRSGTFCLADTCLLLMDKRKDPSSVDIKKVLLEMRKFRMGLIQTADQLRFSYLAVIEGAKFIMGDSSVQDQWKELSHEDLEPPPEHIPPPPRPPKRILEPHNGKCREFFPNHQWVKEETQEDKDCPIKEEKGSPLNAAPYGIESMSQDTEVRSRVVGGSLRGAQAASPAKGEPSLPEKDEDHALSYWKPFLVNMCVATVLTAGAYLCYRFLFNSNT
Procedure, shortened: (§1)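 First, serially diluted inhibitor is mixed about 2 minutes with enzyme in pH 7.5 HEPES/NaCl/EDTA/DTT/Tween-20 buffer. Next, DiFMUP is added at the enzyme's Km, approximately 45 μM for PTPN2. Finally, DiFMU appearance is read continuously at room temperature and rates are fitted for IC50.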

[2] = molecular target: T2, PTPN2 (i.e., TC-PTP) (Homo sapiens, UniProt P17706); assay: Phosphatase activity assay (DiFMUP substrate), PTPN2; assay type: biochemical; settings: compounds binned ≤1 uM or >1 uM
T2 sequence (P17706 1-415): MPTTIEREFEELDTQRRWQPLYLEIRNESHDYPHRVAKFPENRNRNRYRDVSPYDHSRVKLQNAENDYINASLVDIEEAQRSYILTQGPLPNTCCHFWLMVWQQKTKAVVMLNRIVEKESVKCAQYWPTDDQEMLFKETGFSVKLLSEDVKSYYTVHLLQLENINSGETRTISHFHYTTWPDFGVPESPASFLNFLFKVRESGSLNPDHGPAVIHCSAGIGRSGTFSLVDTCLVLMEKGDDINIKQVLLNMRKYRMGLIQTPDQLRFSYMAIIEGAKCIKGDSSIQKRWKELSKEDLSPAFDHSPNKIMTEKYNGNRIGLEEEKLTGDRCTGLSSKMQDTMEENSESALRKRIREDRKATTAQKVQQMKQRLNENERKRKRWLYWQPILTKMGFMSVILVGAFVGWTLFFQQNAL
Procedure, shortened: as §1

IC50 [1]	IC50 [2]	Compound
≤ 1000 nM	≤ 1000 nM	N#CCn1nc(-c2ccc(O)c(N3CC(=O)NS3(=O)=O)c2F)cc1C1CC1 [Compound 349, 2-(5-cyclopropyl-3-(3-(1,1-dioxido-4-oxo-1,2,5-thiadiazolidin-2-yl)-2-fluoro-4-hydroxyphenyl)-1H-pyrazol-1-yl)acetonitrile]
≤ 1000 nM	≤ 1000 nM	CCC(CC)n1cnc(-c2ccc(O)c(N3CC(=O)NS3(=O)=O)c2F)c1 [Compound 350, 5-(2-fluoro-6-hydroxy-3-(1-(pentan-3-yl)-1H-imidazol-4-yl)phenyl)-1,2,5-thiadiazolidin-3-one 1,1-dioxide]
≤ 1000 nM	≤ 1000 nM	O=C1CN(c2c(O)ccc(-c3cnn(C4CCCOC4)c3)c2F)S(=O)(=O)N1 (stereo not shown) [Compound 351, 5-(2-fluoro-6-hydroxy-3-(1-(tetrahydro-2H-pyran-3-yl)-1H-pyrazol-4-yl)phenyl)-1,2,5-thiadiazolidin-3-one 1,1-dioxide]
≤ 1000 nM	≤ 1000 nM	O=C1CN(c2c(O)ccc(-c3cc(C#CC4CC4)n[nH]3)c2F)S(=O)(=O)N1 [Compound 352, 5-(3-(3-(cyclopropylethynyl)-1H-pyrazol-5-yl)-2-fluoro-6-hydroxyphenyl)-1,2,5-thiadiazolidin-3-one 1,1-dioxide]
≤ 1000 nM	≤ 1000 nM	O=C1CN(c2c(O)ccc(C3CCN(C4CC4)CC3)c2F)S(=O)(=O)N1 [Compound 353, 5-(3-(1-cyclopropylpiperidin-4-yl)-2-fluoro-6-hydroxyphenyl)-1,2,5-thiadiazolidin-3-one 1,1-dioxide]
≤ 1000 nM	≤ 1000 nM	CC#Cc1cc(-c2ccc(O)c(N3CC(=O)NS3(=O)=O)c2F)[nH]n1 [Compound 354, 5-(2-fluoro-6-hydroxy-3-(3-(prop-1-yn-1-yl)-1H-pyrazol-5-yl)phenyl)-1,2,5-thiadiazolidin-3-one 1,1-dioxide]
≤ 1000 nM	≤ 1000 nM	O=C1CN(c2c(O)ccc(C3=CCN(S(=O)(=O)C4CC4)CC3)c2F)S(=O)(=O)N1 [Compound 355, 5-(3-(1-(cyclopropylsulfonyl)-1,2,3,6-tetrahydropyridin-4-yl)-2-fluoro-6-hydroxyphenyl)-1,2,5-thiadiazolidin-3-one 1,1-dioxide]
≤ 1000 nM	≤ 1000 nM	O=C1CN(c2c(O)ccc(-c3cc(N4CC(c5ccccc5)C4)n[nH]3)c2F)S(=O)(=O)N1 [Compound 356, 5-(2-fluoro-6-hydroxy-3-(3-(3-phenylazetidin-1-yl)-1H-pyrazol-5-yl)phenyl)-1,2,5-thiadiazolidin-3-one 1,1-dioxide]
≤ 1000 nM	≤ 1000 nM	N#C[C@H]1CC[C@@H](n2cnc(-c3ccc(O)c(N4CC(=O)NS4(=O)=O)c3F)c2)CC1 [Compound 357, (1s,4s)-4-(4-(3-(1,1-dioxido-4-oxo-1,2,5-thiadiazolidin-2-yl)-2-fluoro-4-hydroxyphenyl)-1H-imidazol-1-yl)cyclohexane-1-carbonitrile]
> 1000 nM	> 1000 nM	Cc1cc(O)c(N2CC(=O)NS2(=O)=O)cc1-c1cnn(C)c1 [Compound 358, 5-(2-hydroxy-4-methyl-5-(1-methyl-1H-pyrazol-4-yl)phenyl)-1,2,5-thiadiazolidin-3-one 1,1-dioxide]
≤ 1000 nM	≤ 1000 nM	O=C1CN(c2c(O)ccc(C3CCN(S(=O)(=O)C4CC4)C3)c2F)S(=O)(=O)N1 (stereo not shown) [Compound 359, 5-(3-(1-(cyclopropylsulfonyl)pyrrolidin-3-yl)-2-fluoro-6-hydroxyphenyl)-1,2,5-thiadiazolidin-3-one 1,1-dioxide]
≤ 1000 nM	≤ 1000 nM	O=C1CN(c2c(O)ccc(-c3cnn(C4CCCCCC4)c3)c2F)S(=O)(=O)N1 [Compound 360, 5-(3-(1-cycloheptyl-1H-pyrazol-4-yl)-2-fluoro-6-hydroxyphenyl)-1,2,5-thiadiazolidin-3-one 1,1-dioxide]
≤ 1000 nM	≤ 1000 nM	N#Cc1cccc(-n2cnc(-c3ccc(O)c(N4CC(=O)NS4(=O)=O)c3F)c2)c1 [Compound 361, 3-(4-(3-(1,1-dioxido-4-oxo-1,2,5-thiadiazolidin-2-yl)-2-fluoro-4-hydroxyphenyl)-1H-imidazol-1-yl)benzonitrile]
≤ 1000 nM	≤ 1000 nM	O=C1CN(c2c(O)ccc(-c3cc(C4=CCOC4)n[nH]3)c2F)S(=O)(=O)N1 [Compound 362, 5-(3-(3-(2,5-dihydrofuran-3-yl)-1H-pyrazol-5-yl)-2-fluoro-6-hydroxyphenyl)-1,2,5-thiadiazolidin-3-one 1,1-dioxide]
≤ 1000 nM	≤ 1000 nM	CS(=O)(=O)NC1CC=C(c2ccc(O)c(N3CC(=O)NS3(=O)=O)c2F)CC1 (stereo not shown) [Compound 363, N-(3′-(1,1-dioxido-4-oxo-1,2,5-thiadiazolidin-2-yl)-2′-fluoro-4′-hydroxy-2,3,4,5-tetrahydro-[1,1′-biphenyl]-4-yl)methanesulfonamide]
≤ 1000 nM	≤ 1000 nM	O=C1CN(c2c(O)ccc(-c3cc(C4CC4(F)F)n[nH]3)c2F)S(=O)(=O)N1 (stereo not shown) [Compound 364, 5-(3-(3-(2,2-difluorocyclopropyl)-1H-pyrazol-5-yl)-2-fluoro-6-hydroxyphenyl)-1,2,5-thiadiazolidin-3-one 1,1-dioxide]
≤ 1000 nM	≤ 1000 nM	N#CCc1cc(-c2ccc(O)c(N3CC(=O)NS3(=O)=O)c2F)[nH]n1 [Compound 365, 2-(5-(3-(1,1-dioxido-4-oxo-1,2,5-thiadiazolidin-2-yl)-2-fluoro-4-hydroxyphenyl)-1H-pyrazol-3-yl)acetonitrile]
≤ 1000 nM	≤ 1000 nM	O=C1CN(c2c(O)ccc(-c3cnn(CC(F)(F)F)c3)c2F)S(=O)(=O)N1 [Compound 366, 5-(2-fluoro-6-hydroxy-3-(1-(2,2,2-trifluoroethyl)-1H-pyrazol-4-yl)phenyl)-1,2,5-thiadiazolidin-3-one 1,1-dioxide]
≤ 1000 nM	≤ 1000 nM	Cn1nc(-c2ccc(O)c(N3CC(=O)NS3(=O)=O)c2F)cc1C1CC1 [Compound 367, 5-(3-(5-cyclopropyl-1-methyl-1H-pyrazol-3-yl)-2-fluoro-6-hydroxyphenyl)-1,2,5-thiadiazolidin-3-one 1,1-dioxide]
≤ 1000 nM	≤ 1000 nM	CC(C)(C#N)c1cc(-c2ccc(O)c(N3CC(=O)NS3(=O)=O)c2F)[nH]n1 [Compound 368, 2-(5-(3-(1,1-dioxido-4-oxo-1,2,5-thiadiazolidin-2-yl)-2-fluoro-4-hydroxyphenyl)-1H-pyrazol-3-yl)-2-methylpropanenitrile]
≤ 1000 nM	≤ 1000 nM	CCC1(c2cc(-c3ccc(O)c(N4CC(=O)NS4(=O)=O)c3F)[nH]n2)CC1 [Compound 369, 5-(3-(3-(1-ethylcyclopropyl)-1H-pyrazol-5-yl)-2-fluoro-6-hydroxyphenyl)-1,2,5-thiadiazolidin-3-one 1,1-dioxide]
≤ 1000 nM	≤ 1000 nM	CC(C)Cc1cc(-c2ccc(O)c(N3CC(=O)NS3(=O)=O)c2F)[nH]n1 [Compound 370, 5-(2-fluoro-6-hydroxy-3-(3-isobutyl-1H-pyrazol-5-yl)phenyl)-1,2,5-thiadiazolidin-3-one 1,1-dioxide]
≤ 1000 nM	≤ 1000 nM	O=C1CN(c2c(O)ccc(-c3cc(C4CCCCC4)n[nH]3)c2F)S(=O)(=O)N1 [Compound 371, 5-(3-(3-cyclohexyl-1H-pyrazol-5-yl)-2-fluoro-6-hydroxyphenyl)-1,2,5-thiadiazolidin-3-one 1,1-dioxide]
